Earlier results in patent US8283517B2, “Transgenic mouse models of Aβ overexpression” (Probiodrug AG, priority 2007, dated 2012).

What was measured:
QC = QC catalyzed conversion of Glu-βNA, pH-dependence data
[1] = not given; remark: listed apart in the source

Row | Structure (SMILES) | pKa-value of the α-amino group, determined by titration | kinetically determined pKa-value (QC) | pKa-value for the α-amino moiety [1] | pKa-value for the γ-carboxylic moiety ([1]; printed as 7-carboxylic)
1 | N[C@@H](CCC(=O)O)C(=O)Nc1ccc2ccccc2c1 [Glu-βNA] | 7.57±0.05 | 7.55+/−0.02 |  | 
2 | N[C@@H](CCC(=O)O)C(=O)O [Glutamate] |  |  | ~7.5 | about 4.2
